Assay results reported in PMC8777613, “Effect of Hydroxyl Groups Esterification with Fatty Acids on the Cytotoxicity and Antioxidant Activity of Flavones” (Molecules, 2022).

Columns and labels:
[1] = test system: human prostate cancer cells (PC3); experiment: MTT dye reduction viability test, PC3; assay type: cell-based; conditions: Homo sapiens; for IC50: 72 h exposure, MTT, mean ± SD, read-out: Cytotoxic activity IC50, PC3; for viability at 10 µM: PC3, 10 µM; for viability at 10 µM / viability at 20 µM / viability at 40 µM / viability at 60 µM / viability at 80 µM / viability at 100 µM: 72 h, representative MTT result (Table S1 A); for viability at 20 µM: PC3, 20 µM; for viability at 40 µM: PC3, 40 µM; for viability at 60 µM: PC3, 60 µM; for viability at 80 µM: PC3, 80 µM; for viability at 100 µM: PC3, 100 µM, read-out: Cells viability
Method: (§1) We have chosen two types of cell culture lines: human prostate cancer cells (PC3) and normal human immortal keratinocyte cells (HaCaT) (Table 1).
(§2) Human prostate cancer cells (PC3) and human immortal keratinocyte cell line from adult human skin (HaCaT) were obtained from American Type Culture Collection (Teddington, UK) and cultured according to its instructions RPMI 1640 (L0490) medium or DMEM (L0102) medium, respectively, in a 95% air and 5% CO2 humidified incubator at 37 °C. Both media (Biowest) were supplemented with 10% fetal bovine serum (FBS), 100 U/mL penicillin and 100 μg/mL streptomycin. 10 mM stock solutions of tested compounds in DMSO were prepared.
(§3) To assess the cells growth inhibition, the MTT dye reduction test was preformed based on the method described by Präbst et al.. Both PC3 and HaCaT cells (1 × 10^3/well) were seeded into 96-well plates and incubated for 24 h to attach to the bottom of the well in appropriate medium (200 μL) and treated with tested compounds (0–100 μM). The medium with compounds was removed after 72 h and MTT (0.5 mg/mL) in fresh growth medium without serum was added to each well. The plates were incubated in dark for 4 h at 37 °C. Then, the solution in each well was removed and refilled with 100 μL DMSO: isopropanol (1:1) to dissolve formazon crystals. The optical density was measured with an UVM 340 (ASYS Hitech GmbH, Austria) microplate reader at 570 nm. Replicates of three wells for each dosage, including vehicle control, were analyzed for each experiment. The experiments were conducted in triplicate. The results are expressed as IC50 values. The value of IC50 was estimated using CompuSyn version 1.0.

[2] = MTT dye reduction viability test, HaCaT; assay type: cell-based, human; conditions: human, HaCaT cells (immortal keratinocytes); for IC50 at 72 h: 72 h exposure, MTT, mean ± SD, read-out: Cytotoxic activity IC50, HaCaT; for viability at 72 h, 10 µM / viability at 72 h, 20 µM / viability at 72 h, 40 µM / viability at 72 h, 60 µM / viability at 72 h, 80 µM / viability at 72 h, 100 µM: HaCaT, representative MTT result (Table S1 B); for viability at 72 h, 100 µM: read-out: Cells viability
Method: as §1, §2, §3

[3] = test system: human immortal keratinocyte cells (HaCaT); experiment: MTT dye reduction viability test, HaCaT; assay type: cell-based; conditions: 72 h exposure, MTT, mean ± SD; read-out: Cytotoxic activity IC50, HaCaT
Method: as §1, §2, §3

rat brain homogenate = experiment: Lipid peroxidation (MDA/TBA) induced by FeCl2 and ascorbic acid; assay type: biochemical; conditions: for MDA concentration: 10 µM compound, oxidation by 0.1% FeCl2 and 1 mM ascorbic acid, 1 h 37 °C, control 9.644 ± 1.570
Method: The antioxidant potential of the new flavone derivatives was assessed based on the analysis of malondialdehyde concentration formed as a product of lipid oxidation stimulated by iron (II) ions.
After preparation, the brain was placed on an ice plate and washed with cold 0.9% NaCl. 10% (m/v) brain solution was obtained by homogenization in cold 10 mM TRIS-HCl buffer, pH = 7.5. The homogenate was centrifuged (2000 rpm, 10 min, 4 °C) to obtain supernatant 1 (S1).
100 µM stock solutions of test compounds in DMSO were prepared. The test compound solution was added to a […] S1 homogenate to a final concentration of 10 µM.
The oxidation reaction was induced by adding to the samples with or without the test compounds freshly prepared solutions: 0.1% FeCl2 (0.2 mL) and 1 mM ascorbic acid (0.4 mL). After incubation for 1 h at 37 °C, the reaction was stopped by adding 8.1% sodium dodecyl sulfate (SDS) solution. In order to determine the concentration of MDA, the acetic acid/HCl buffer at pH = 3.4 and 120 μL of 0.8% thiobarbituric acid (TBA) solution at pH = 6 were added to the samples. The samples were incubated for 1 h at 100 °C. After incubation, the samples were cooled on ice and centrifuged for 10 min at 4000 RPM. The absorbance was measured at a wavelength of 532 nm. Blank content: 0.5 mL of acetate buffer + 0.5 mL of TBA solution.
Calculation of malondialdehyde (MDA) concentration (Equation (1)):(1) MDA concentration=∆ A532 nm × 1.56 ×10^−6 [nmol MDA/h/g tissue]

## CCCCCCCCC=CCCCCCCCC(=O)Oc1ccc2c(c1)C(=O)CC(c1ccccc1)O2 (centres unmarked) [6-Oleic-Flavanone, 6-hydroxy-flavanone oleic ester]
[1]
  IC50: 38.1 ± 3.24 µM
  viability at 10 µM: 100%
  viability at 20 µM: 70.9%
  viability at 40 µM: 41.4%
  viability at 60 µM: 19.3%
  viability at 80 µM: 13.3%
  viability at 100 µM: 6.81%
[2]
  IC50 at 72 h: 53.3 ± 6.87 µM
  viability at 72 h, 10 µM: 97.8%
  viability at 72 h, 20 µM: 70%
  viability at 72 h, 40 µM: 75.7%
  viability at 72 h, 60 µM: 26.4%
  viability at 72 h, 80 µM: 26.5%
  viability at 72 h, 100 µM: 26.5%
[3]
  IC50: 53.3 ± 6.87 µM
Rat brain homogenate
  MDA concentration: 8.326 ± 0.490 mM × 10^−3
other
  melting point: 46.2 to 47.1 °C

## CCC=CCC=CCC=CCCCCCCCC(=O)Oc1ccc2c(c1)C(=O)CC(c1ccccc1)O2 (centres unmarked) [6-Linolenic-Flavanone, 6-hydroxy-flavanone linolenic ester]
[1]
  IC50: 51.4 ± 2.8 µM
  viability at 10 µM: 92.5%
  viability at 20 µM: 85.9%
  viability at 40 µM: 79.5%
  viability at 60 µM: 48%
  viability at 80 µM: 35.8%
  viability at 100 µM: 31.5%
[2]
  IC50 at 72 h: 80 ± 4.75 µM
  viability at 72 h, 10 µM: 95.8%
  viability at 72 h, 20 µM: 75.2%
  viability at 72 h, 40 µM: 53.3%
  viability at 72 h, 60 µM: 38.1%
  viability at 72 h, 80 µM: 25.8%
  viability at 72 h, 100 µM: 23.8%
[3]
  IC50: 44.6 ± 5.89 µM

## CC=CC=CC(=O)Oc1ccc2c(c1)C(=O)CC(c1ccccc1)O2 (centres unmarked) [6-Sorbic-Flavanone, 6-hydroxy-flavanone sorbic ester]
[1]
  IC50: 54.7 ± 5.25 µM
  viability at 10 µM: 95.6%
  viability at 20 µM: 88.7%
  viability at 40 µM: 82.1%
  viability at 60 µM: 41.3%
  viability at 80 µM: 28.7%
  viability at 100 µM: 32.6%
[2]
  IC50 at 72 h: 79.8 ± 2.21 µM
  viability at 72 h, 10 µM: 98.7%
  viability at 72 h, 20 µM: 96.7%
  viability at 72 h, 40 µM: 89.6%
  viability at 72 h, 60 µM: 75.7%
  viability at 72 h, 80 µM: 56.7%
  viability at 72 h, 100 µM: 31.4%
Rat brain homogenate
  MDA concentration: 6.938 ± 0.392 mM × 10^−3
Rat brain homogenate; MDA in rat brain homogenate
  antioxidant potential compared to the original compound (in words): slight increase in antioxidant potential
other
  melting point: 129.4 to 130.8 °C

## CCCCCCCCC=CCCCCCCCC(=O)Oc1ccc2c(=O)cc(-c3ccccc3)oc2c1 [7-Oleic-Flavone, 7-hydroxy-flavone oleic ester]
[1]
  IC50: 39.3 ± 2.11 µM
  viability at 10 µM: 92.2%
  viability at 20 µM: 80.8%
  viability at 40 µM: 48.2%
  viability at 60 µM: 41%
  viability at 80 µM: 42.2%
  viability at 100 µM: 38.9%
[2]
  IC50 at 72 h: 44.9 ± 6.44 µM
  viability at 72 h, 10 µM: 95.3%
  viability at 72 h, 20 µM: 79.3%
  viability at 72 h, 40 µM: 51.9%
  viability at 72 h, 60 µM: 39.9%
  viability at 72 h, 80 µM: 38.7%
  viability at 72 h, 100 µM: 44.9%
Rat brain homogenate
  MDA concentration: 8.465 ± 0.834 mM × 10^−3
other
  melting point: 73.3 to 74.5 °C
